Experimental data as given in patent US20070286886A1, “Materials And Methods For Inducing Apoptosis In Adipocytes” (University of Tennessee Research Foundation, priority 2004, published 2007).
Entries after “also recorded” stand apart in the source; their conditions may differ.

Assays:
Type in all cases: cell-based
[1] = tested on: 3T3-L1 and UCP2-transfected 3T3-L1 adipocytes; experiment: Cytosolic/intracellular calcium (fura-2 dual-wavelength fluorescence imaging) in adipocytes
caspase-3 = experiment: Caspase-3 mRNA expression by real-time PCR in 3T3-L1 and UCP2-transfected 3T3-L1 adipocytes
Method: 3T3-L1 preadipocytes were incubated at a density of 8000 cells/cm2 (10 cm2 dish) and grown in Dulbecco's modified Eagle's medium (DMEM) containing 10% FBS and antibiotics (adipocyte medium) at 37° C. in 5% CO2 in air. Confluent preadipocytes were induced to differentiate with a standard differentiation medium consisting of DMEM-F10 (1:1, vol/vol) medium supplemented with 1% FBS, 1 μM dexamethasone, IBMX (0.5 mM), and antibiotics (1% penicillin-streptomycin). Preadipocytes were maintained in this differentiation medium for 3 days and subsequently cultured in adipocyte medium. Cultures were re-fed every 2-3 days to allow 90% cells to reach full differentiation before they were chemically treated. Chemicals were freshly diluted in adipocyte medium before treatment. Cells were washed with fresh adipocyte medium, re-fed with medium containing the different treatments, and incubated at 37° C. in 5% CO2 in air before analysis. Cell viability was measured via trypan blue exclusion.
UCP2 full-length cDNAs were amplified by […] using mRNAs isolated from mouse white adipose tissues. The PCR primers for this amplification are shown as follows: UCP2 forward, 5′-[…]-3′, reverse, 5′-[…]-3′. The PCR products were then subcloned into pcDNA4/His expression vectors. The linearized constructs were transfected into 3T3-L1 preadipocytes using lipofectamine plus standard protocol (Invitrogen, Carlsbad, Calif.). After 48 h of transfection, cells were split and cultured in selective medium containing 400 ug/ml zeocin for the selection of resistant colonies. Cells were fed with selective medium every 3 days until resistant colonies could be identified. These resistant foci were picked, expanded, tested for expression, and frozen for future experiments.
A total cellular RNA isolation kit (Ambion, Austin, Tex.) was used to extract total RNA from 3T3-L1 cells according to the manufacturer's instructions.
Adipocyte caspase-1, caspase-3, Bcl-2, and Bax mRNA were quantitatively measured using a Smart Cycler Real Time PCR System (Cepheid, Sunnyvale, Calif.) with a TaqMan 1000 Core Reagent Kit (Applied Biosystems, Branchburg, N.J.). The primers and probe sets were ordered from Applied Biosystems TaqMan Assays-on-Demand Gene Expression primers and probe set collection according to the manufacturer's instructions. Pooled 3T3-L1 adipocyte total RNA was serial-diluted in the range of 1.5625-25 ng and used to establish a standard curve; total RNAs for unknown samples were also diluted in this range. Reactions of quantitative RT-PCR for standards and unknown samples were Cepheid, Sunnyvale, Calif.) and TaqMan Real Time PCR Core Kit. The mRNA quantitation for each sample was further normalized using the corresponding 18 s quantitation, with a forward primer, 5′-[…]-3′, and a reverse primer, 5′-[…]-3′.
3T3-L1 preadipocytes were incubated at a density of 8000 cells/cm2 (10 cm2 dish) and grown in Dulbecco's modified Eagle's medium (DMEM) containing 10% FBS and antibiotics at 37° C. in 5% CO2. Confluent preadipocytes were induced to differentiate with a standard differentiation medium consisting of DMEM-F 10 (1:1, vol/vol) medium supplemented with 1% FBS, 1 μM dexamethasone, IBMX (0.5 mM) and antibiotics (1% penicillin/streptomycin). Preadipocytes were maintained in this differentiation medium for 3 days and subsequently cultured in adipocyte medium. Cultures were re-fed every 2-3 days to allow 90% cells to reach fully differentiation before conducting chemical treatment. Chemicals were freshly diluted in adipocyte medium before treatment. Cells were washed with fresh adipocyte medium, re-fed with medium containing the different treatments, and incubated at 37° C. in 5% CO2 in air before analysis. Cell viability was measured via trypan blue exclusion.
Adipocytes were incubated with adipocyte medium for 24 h with or without GDP, BK 8644, GDP plus BK8644 before total RNA extraction. […]

[2] = tested on: 3T3-L1 and UCP2-transfected 3T3-L1 adipocytes; experiment: Mitochondrial calcium (rhod-2 AM fluorescence) in adipocytes
Method: (§1) Rhod-2/AM was used for qualitative measurement of [Ca^2+]m. Cells were incubated with the Ca^2+-sensitive fluorescent indicator rhod-2 AM (1-1.5 μM) for at least 1 h at 37° C. in 5% CO2 in humidified air. Because rhod-2 AM consists of a cationic rhodamine molecule, it accumulates preferentially inside the mitochondria due to their negative membrane potential. After loading, the cells were kept in rhod-2 AM-free standard solution for at least 1 h to allow conversion of the dye to its Ca^2+-sensitive, free acid form. Images of [Ca^2+]m were acquired at the wavelength of 552 nm excitation and 590 nm emission using the intracellular imaging system described above. Because rhod-2 is not a ratiometric dye, its fluorescence intensity was not calibrated to obtain absolute values of [Ca^2+]m. Instead, only relative values were recorded as fluorescence signal (F) relative to the control value (F0). After baseline calcium concentration was measured, the 1α,25-(OH)2-D3 was immediately applied to the cells and the calcium concentration was measured again.
as §1, with “the Ca^2+ sensitive” for “the Ca^2+-sensitive”, “AM (1-1·5 μM),” for “AM (1-1.5 μM)”, “at 370 degrees Celsius” for “at 37° C.”, “air. Since” for “air. Because”, “above. Since” for “above. Because”, “(F0).” for “(F0). After baseline calcium concentration was measured, the 1α,25-(OH)2-D3 was immediately applied to the cells and the calcium concentration was measured again.”

caspase-3 expression (caspase-3; high dose 100 nM, 24 h, control and UCP2-transfected 3T3-L1 cells, P<0.01) | caspase-3 expression (caspase-3; physiological low doses 0.1 nM, 1 nM, 5 nM, 10 nM, 24 h, control and UCP2-transfected 3T3-L1 cells, P<0.05) | caspase-3 expression (caspase-3; 3T3-L1 cells, Bay K 8644 5-100 nM range of FIG. 15) | SMILES | cytosolic calcium levels ([1]; 1 nM, 5 nM, 10 nM, 100 nM, control and UCP2-transfected cells) | increase in calcium influx, high dose relative to the lower doses ([1]; high dose (100 nM) vs lower doses) | mitochondrial calcium [Ca2+]m ([2]; high dose (100 nM)) | increase of mitochondrial Ca2+ ([2]; high dose (100 nM), P<0.05) | mitochondrial calcium [Ca2+]m ([2]; low doses (0.1 nM to 10 nM), control and UCP2-transfected cells) | suppression of mitochondrial Ca2+ levels ([2]; physiological doses (0.1-10 nM)) | adipocyte Ca2+ influx / [Ca2+]i ([1]; 1 nM-100 nM, 3T3-L1 cells) | increases in [Ca2+]i ([1]; 3T3-L1 cells) | mitochondrial calcium ([2]; 3T3-L1 cells, p<0.05)
stimulated | inhibited |  | C=C1/C(=C\C=C2/CCC[C@]3(C)[C@@H]([C@H](C)CCCC(C)(C)O)CC[C@@H]23)C[C@@H](O)C[C@@H]1O [1α,25-(OH)2-D3, 1α,25-dihydroxyvitamin D3] | dose-dependent increase; also recorded: dose-dependently | 10 fold | significantly stimulated | 25% | decreased; also recorded: significant decreases | ~50% |  |  | 
 |  | dose-dependently | COC(=O)C1=C(C)NC(C)=C([N+](=O)[O-])C1c1ccccc1C(F)(F)F (stereo not drawn) [Bay K 8644] |  |  |  |  |  |  | dose-dependent | 3-4 fold | increased
